Assay results reported in patent publication US20230149507A1, “TREATMENT OF ALT CANCERS” (INSTITUTO DE MEDICINA MOLECULAR JOÃO LOBO ANTUNES, priority 2019, published 2023).

Columns and labels:
U-2 OS cells [1] = assay: Single molecule analysis of telomeric extension events (SMAT) in cells overexpressing FANCM variants; format: cell-based, human; settings: overexpression
Source text: (a) Schematic of FANCM domain interactions, mutations or deletions. For clarity, domains have been color coded by functional role (bottom panel). (b) Quantitation of metaphase-TIFs in U-2 OS cells stably overexpressing wild-type (FANCM+) or FANCM mutants. Scatterplot bars represent the mean±SEM. Out of 3 experiments, n≥110 metaphases scored for each mutant, *p<0.05, **p<0.005, Mann-Whitney test. (c) Quantitation of fragile telomeres in U-2 OS cells stably overexpressing wild-type (FANCM+) or FANCM mutants. Scatterplot bars represent the mean±SEM. Out of 3 experiments, n>100 metaphases scored for each mutant, *p<0.05, **p<0.005, Mann-Whitney test. (d) Representative dot blots and quantitation of C-circle assays in U-2 OS cells stably overexpressing wild-type (FANCM+) or FANCM domain mutants. C-circles were normalized to the mean of vector control. Error bars represent mean±SEM from n=3 experiments, *p<0.05, **p<0.005, Student's t-test. […]
Cells were labelled with 100 μM CIdU for 5 h prior to harvesting by trypsinization. […] Halogenated nucleotides were detected with a rat anti-CldU monoclonal antibody (Accurate) and Alexa Fluor 488-conjugated goat anti-rat antibody (Molecular Probes). Telomere fibers were detected on a Zeiss Axio Imager microscope with ApoTome module and analyzed with Zen software (Zeiss).

U-2 OS cells [2] = assay: Fragile telomeres in cells overexpressing FANCM variants; format: cell-based, human; settings: stable overexpression
Source text: (a) Schematic of FANCM domain interactions, mutations or deletions. For clarity, domains have been color coded by functional role (bottom panel). (b) Quantitation of metaphase-TIFs in U-2 OS cells stably overexpressing wild-type (FANCM+) or FANCM mutants. Scatterplot bars represent the mean±SEM. Out of 3 experiments, n≥110 metaphases scored for each mutant, *p<0.05, **p<0.005, Mann-Whitney test. (c) Quantitation of fragile telomeres in U-2 OS cells stably overexpressing wild-type (FANCM+) or FANCM mutants. Scatterplot bars represent the mean±SEM. Out of 3 experiments, n>100 metaphases scored for each mutant, *p<0.05, **p<0.005, Mann-Whitney test. (d) Representative dot blots and quantitation of C-circle assays in U-2 OS cells stably overexpressing wild-type (FANCM+) or FANCM domain mutants. C-circles were normalized to the mean of vector control. Error bars represent mean±SEM from n=3 experiments, *p<0.05, **p<0.005, Student's t-test. (e) Single molecule analysis of telomeric extension events (top panel) and length of extension events (bottom panel) in U-2 OS cells stably overexpressing wild-type (FANCM+) or FANCM domain mutants. Error bars represent mean±SEM of n≥350 fibers out of 3 experiments, *p<0.05, **p<0.005, Student's t-test.
Empty vector and wild-type FANCM (pCMV6-Myc-DDK) constructs were obtained from Origene Technologies. Wild type FANCM (SEQ ID NO: 2) and FANCM mutants (SEQ ID NOs: 19 to 28) were cloned into the pLenti-C-Myc-DDK-IRES-Neo backbone (Origene Technologies) by restriction enzyme subcloning of gene blocks synthesized by Integrated DNA Technologies (IDT). Lentivirus was produced by the Vector and Genome Engineering Facility (Children's Medical Research Institute). For stable overexpression, cells were transduced with lentivirus, allowed to recover for 24 h, and subject to G418 selection. Cells were maintained in G418 to ensure sustained overexpression.
Indirect IF and telomere FISH were performed on both interphase nuclei and metaphase spreads. For interphase IF experiments, cells were grown on coverslips or LabTek chamber slides (Thermo Scientific). Slides were prepared as described in Sobinoff et al., 2017. Cells on coverslips were washed twice with PBS, permeabilized with KCM buffer (120 mM KCl, 20 mM NaCl, 10 mM Tris pH 7.5, 0.1% Triton), washed again with PBST and PBS, then fixed with ice-cold 4% formaldehyde PBS solution at room temperature for 10 min. Coverslips were blocked with antibody-dilution buffer (20 mM Tris-HCl, pH 7.5, 2% (w/v) BSA, 0.2% (v/v) fish gelatin, 150 mM NaCl, 0.1% (v/v) Triton X-100 and 0.1% (w/v) sodium azide) and 0.1 mg/ml RNaseA for 30 min at 37° C. […]

Substance	number of telomere extension events (U-2 OS cells [1])	number of fragile telomeres (telomere fragility) (U-2 OS cells [2])
FF>AA: FANCM mutant (SEQ ID NO: 25), double substitution F1232A/F1236A within the MM2 domain	significant increase in the number of extension events	significantly increased
K117R: FANCM mutant (SEQ ID NO: 20) substituted at K117R, DEAH domain disrupted		failed to suppress the phenotypes
